Our source for the TGI and GI50 values is PubChem BioAssay (NCI).

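How tested: cells in 96-well plates exposed to compound for 48 hours at five concentrations. GI50: concentration for 50% inhibition of growth. At the TGI there is no net growth.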

Some test systems named below: SK-MEL-28 melanoma; LOX IMVI melanoma; HOP-62 NSCLC; SK-MEL-2 melanoma; OVCAR-4 ovarian; SF-295 CNS; SN12C renal; HCT-15 colon; RPMI-8226 leukemia.
What all share (assay): NCI tumour cell line growth inhibition, 48 h

Take `Nc1n[nH]c(CCc2nc(N)n[nH]2)n1`: the TGI with SK-MEL-28 melanoma, in the assay on LOX IMVI melanoma, in the assay with HOP-62 NSCLC, in the assay with SK-MEL-2 melanoma, with OVCAR-4 ovarian and in the assay on SF-295 CNS was greater than 100 µM each time. Moreover, the TGI in the assay with SN12C renal, in the assay on HCT-15 colon and in the assay on RPMI-8226 leukemia was greater than 100 µM in each case.

On to `Cc1cc2c(C)n(Cc3ccc(Cl)cc3Cl)nc2c(C(=O)O)c1C`, for which the TGI in the assay on SK-MEL-28 melanoma, in the assay on LOX IMVI melanoma, in the assay with HOP-62 NSCLC, with SK-MEL-2 melanoma, in the assay with SF-295 CNS and in the assay with SN12C renal was greater than 100 µM throughout. Also, the TGI with HCT-15 colon and in the assay on RPMI-8226 leukemia was greater than 100 µM each time.

Turning to `CC1(C)OC(=O)C=C([O-])O1.CC1(C)OC(=O)C=C([O-])O1.CC[O-].CC[O-].[Ti+4]`, the GI50 with SK-MEL-28 melanoma, in the assay with LOX IMVI melanoma, in the assay with HOP-62 NSCLC, in the assay on SK-MEL-2 melanoma, in the assay with OVCAR-4 ovarian and with SF-295 CNS was greater than 100 µM in each case. Further, the GI50 in the assay on HCT-15 colon and with RPMI-8226 leukemia was greater than 100 µM each time. Moreover, the TGI with SK-MEL-28 melanoma, in the assay on LOX IMVI melanoma, in the assay on HOP-62 NSCLC, in the assay with SK-MEL-2 melanoma, in the assay with OVCAR-4 ovarian and in the assay on SF-295 CNS was greater than 100 µM in each case. Also, the TGI in the assay on HCT-15 colon and with RPMI-8226 leukemia was greater than 100 µM each time.

In the case of `CC1=C(C(=O)Nc2ccc([N+](=O)[O-])cc2)C(c2ccccc2F)C(C(=O)Nc2ccc([N+](=O)[O-])cc2)=C(C)N1`, the TGI with SK-MEL-28 melanoma was greater than 100 µM; with LOX IMVI melanoma, 31.3 µM; with HOP-62 NSCLC, 47.8 µM; with SK-MEL-2 melanoma, 24.7 µM; with OVCAR-4 ovarian, 89.8 µM; in the assay with SF-295 CNS, 63 µM. For the same compound, the values for the TGI in the assay on SN12C renal and with RPMI-8226 leukemia were 48.3 µM and 27.5 µM, respectively.

In the case of `CCOC(=O)C1=C(Nc2ccc(Cl)c(Cl)c2)OC/C1=N\NS(=O)(=O)c1ccc(C)cc1`, the TGI in the assay with SK-MEL-28 melanoma, in the assay with LOX IMVI melanoma, in the assay on HOP-62 NSCLC, with SK-MEL-2 melanoma, in the assay with OVCAR-4 ovarian and in the assay on SF-295 CNS was greater than 100 µM each time. For the same compound, the TGI was greater than 100 µM with SN12C renal and 64.9 µM with RPMI-8226 leukemia.

For the compound `O=[N+]([O-])c1ccc(Cl)cc1C1SCc2nc3ccccc3n21` (stereo not given), the TGI in the assay on SK-MEL-28 melanoma, in the assay on HOP-62 NSCLC, with SK-MEL-2 melanoma, in the assay on OVCAR-4 ovarian, in the assay with SF-295 CNS and in the assay on SN12C renal was greater than 100 µM throughout. The TGI in the assay on HCT-15 colon and in the assay with RPMI-8226 leukemia was greater than 100 µM throughout.

Turning to `Cc1ccccc1-n1c(C)nc(-c2ccccc2)cc1=O`, the TGI with SK-MEL-28 melanoma, with LOX IMVI melanoma, with HOP-62 NSCLC, with SK-MEL-2 melanoma, with OVCAR-4 ovarian and in the assay on SF-295 CNS was greater than 100 µM in each case. Moreover, the TGI in the assay with SN12C renal and in the assay on HCT-15 colon was greater than 100 µM in each case.

With `COC1OC2COC(c3ccccc3)OC2C(O)C1Br` (stereo not given), the TGI with SK-MEL-28 melanoma, in the assay with LOX IMVI melanoma, in the assay on HOP-62 NSCLC, in the assay on OVCAR-4 ovarian, with SF-295 CNS and in the assay with SN12C renal was greater than 100 µM throughout. For the same compound, the TGI in the assay on HCT-15 colon and with RPMI-8226 leukemia was greater than 100 µM each time.

Consider `O=C(NS(=O)(=O)c1ccccc1)C(Cc1ccccc1)C(Cc1ccccc1)C(=O)NS(=O)(=O)c1ccccc1` (stereo not given), for which the TGI in the assay with SK-MEL-28 melanoma, with LOX IMVI melanoma, with HOP-62 NSCLC, in the assay with SK-MEL-2 melanoma, in the assay on OVCAR-4 ovarian and with SF-295 CNS was greater than 100 µM in each case. The TGI with SN12C renal and in the assay with RPMI-8226 leukemia was greater than 100 µM throughout.

For the compound `N#CC1=C(Cl)NC(Cl)=C(C#N)C1c1c(Cl)cccc1Cl`, the TGI in the assay with SK-MEL-28 melanoma was greater than 100 µM; in the assay on LOX IMVI melanoma it was 31 µM; with HOP-62 NSCLC it was greater than 100 µM; in the assay with SK-MEL-2 melanoma it was greater than 100 µM; in the assay on SF-295 CNS, greater than 100 µM; in the assay with SN12C renal, 79.5 µM. Moreover, the TGI in the assay on HCT-15 colon was 29.7 µM; in the assay on RPMI-8226 leukemia it was 46.4 µM.

For the compound `O=C1C=CC(CC(=O)c2ccc3ccccc3c2)O1` (stereo not given), the TGI is greater than 100 µM with SK-MEL-28 melanoma; 35.8 µM in the assay on LOX IMVI melanoma; 36.6 µM with HOP-62 NSCLC; 47.5 µM with SK-MEL-2 melanoma; 63.7 µM in the assay with OVCAR-4 ovarian; greater than 100 µM in the assay on SF-295 CNS. The TGI with SN12C renal was 36 µM; with HCT-15 colon, 50.4 µM.

`CN(C)C(=S)/N=c1\ss/c(=N\S(=O)(=O)c2ccccc2)n1N(C)C`: the TGI in the assay with SK-MEL-28 melanoma, in the assay on HOP-62 NSCLC, with SK-MEL-2 melanoma, in the assay on OVCAR-4 ovarian, with SN12C renal and with HCT-15 colon was greater than 100 µM throughout. This compound also yielded a TGI in the assay on RPMI-8226 leukemia greater than 100 µM.

With `Nn1c(N=Nc2c(O)[nH]c3c(Cl)cc(Cl)cc23)n[nH]c1=S`, the TGI with LOX IMVI melanoma, with HOP-62 NSCLC, with SK-MEL-2 melanoma, with OVCAR-4 ovarian, in the assay with SF-295 CNS and with SN12C renal was greater than 100 µM throughout. Also, the TGI in the assay with HCT-15 colon and in the assay with RPMI-8226 leukemia was greater than 100 µM throughout.

On to `CN(/N=N/c1nc(OCc2ccccc2)c2[nH]cnc2n1)C(=O)Oc1ccc([N+](=O)[O-])cc1`, for which the GI50 with SK-MEL-28 melanoma was 12.4 µM; in the assay on LOX IMVI melanoma, 1.14 µM; with HOP-62 NSCLC, 28.8 µM; with SK-MEL-2 melanoma, 11.9 µM; with OVCAR-4 ovarian, 22.8 µM; in the assay with SF-295 CNS it was 11.1 µM. Also, the GI50 is 8.9 µM with HCT-15 colon and 9.12 µM in the assay on RPMI-8226 leukemia. In addition, the TGI in the assay with SK-MEL-28 melanoma is greater than 50 µM; in the assay on LOX IMVI melanoma, 10.8 µM; in the assay on HOP-62 NSCLC, greater than 50 µM; in the assay on SK-MEL-2 melanoma, 28.5 µM; in the assay with OVCAR-4 ovarian, greater than 50 µM; in the assay on SF-295 CNS, 33.6 µM. Besides, the results for the TGI with HCT-15 colon and in the assay on RPMI-8226 leukemia were 20 µM and greater than 50 µM, respectively.

Turning to `COC(=O)C1=C(c2ccc3c(c2)OCO3)OC(c2cc(OC)c(OC)c(OC)c2)C1` (stereo not given), the TGI in the assay on SK-MEL-28 melanoma, in the assay with LOX IMVI melanoma, with HOP-62 NSCLC, in the assay with OVCAR-4 ovarian, in the assay with SF-295 CNS and with SN12C renal was greater than 100 µM in each case. Besides, the TGI was 15.2 µM with HCT-15 colon and greater than 100 µM with RPMI-8226 leukemia.

As for `O=C(NO)c1ccc(O)c(O)c1`, the TGI with SK-MEL-28 melanoma, in the assay on HOP-62 NSCLC, in the assay on OVCAR-4 ovarian, in the assay on SF-295 CNS, in the assay on SN12C renal and in the assay on HCT-15 colon was greater than 100 µM in each case. The TGI with RPMI-8226 leukemia was greater than 100 µM.

With `O=C1NC(=O)C2C1N(Cc1ccccc1)C(=O)N2Cc1ccccc1` (stereo not given), the TGI with SK-MEL-28 melanoma, in the assay with LOX IMVI melanoma, in the assay on HOP-62 NSCLC, with OVCAR-4 ovarian, in the assay with SF-295 CNS and in the assay on SN12C renal was greater than 100 µM each time. In addition, the TGI in the assay on HCT-15 colon and with RPMI-8226 leukemia was greater than 100 µM throughout.

For the compound `Cc1cccc(C(C)(C)C)c1NC(=O)CC1Sc2ccccc2NC1=O` (stereo not given), the TGI in the assay on SK-MEL-28 melanoma is greater than 100 µM; in the assay with HOP-62 NSCLC it was greater than 100 µM; with OVCAR-4 ovarian it was greater than 100 µM; with SF-295 CNS it was greater than 100 µM; with SN12C renal, greater than 100 µM; in the assay with RPMI-8226 leukemia, 46 µM.

With `O=C(/C=C1/Nc2ccc([N+](=O)[O-])cc2NC1O)c1cccc([N+](=O)[O-])c1` (stereo not given), the TGI with SK-MEL-28 melanoma is greater than 100 µM; in the assay on LOX IMVI melanoma, greater than 100 µM; with HOP-62 NSCLC, greater than 100 µM; in the assay with OVCAR-4 ovarian, 11.1 µM; with SF-295 CNS, 38.3 µM; in the assay with SN12C renal, greater than 100 µM. The compound also displayed a TGI in the assay with HCT-15 colon greater than 100 µM.

Consider `Cc1cccc2nc3cccc(C(=O)NCCN(C)C)c3nc12`, for which the TGI in the assay on SK-MEL-28 melanoma was determined as 2.93 µM; with LOX IMVI melanoma, 11.6 µM; in the assay with HOP-62 NSCLC, 1.39 µM; with SK-MEL-2 melanoma it was 2.96 µM; in the assay with OVCAR-4 ovarian, 4.84 µM; in the assay with SF-295 CNS, 14.3 µM. For the same compound, the TGI in the assay on SN12C renal was 3.15 µM; in the assay with HCT-15 colon, 2.19 µM.

Turning to `CC1=CC(=O)N(c2c(C)cccc2Cl)C(C)N1` (stereo not given), the TGI in the assay on SK-MEL-28 melanoma, in the assay with LOX IMVI melanoma, in the assay with HOP-62 NSCLC, in the assay with SK-MEL-2 melanoma, with OVCAR-4 ovarian and in the assay with SF-295 CNS was greater than 100 µM throughout. Also, the TGI with SN12C renal and with HCT-15 colon was greater than 100 µM each time.

As for `O=C(O)CCSC(=O)Nc1ccc(N=Nc2ccccc2)cc1`, the TGI in the assay on SK-MEL-28 melanoma, with LOX IMVI melanoma, with HOP-62 NSCLC, in the assay on OVCAR-4 ovarian, in the assay with SF-295 CNS and in the assay with SN12C renal was greater than 100 µM each time. For the same compound, the TGI in the assay with HCT-15 colon and in the assay with RPMI-8226 leukemia was greater than 100 µM each time.

With `CN1CC(=O)N(C)c2nc[nH]c2C1=O`, the TGI in the assay on SK-MEL-28 melanoma, with LOX IMVI melanoma, in the assay on OVCAR-4 ovarian, with SF-295 CNS, with SN12C renal and in the assay with HCT-15 colon was greater than 100 µM in each case. This compound returned a TGI in the assay with RPMI-8226 leukemia greater than 100 µM.
